# Experimental data published in patent publication US20240269139A1, “COMPOUNDS FOR TARGETED PROTEIN DEGRADATION OF KINASES” (DANA-FARBER CANCER INSTITUTE, INC., priority 2020, published 2024).
# Read-outs that look alike come from different tables or passages of the source.
# Tests used:
# [1] = molecular target: protein kinases (human kinome) (Homo sapiens, UniProt P54646); assay type: cell-based; conditions: experiment wp146
# [2] = molecular target: protein kinases (human kinome) (Homo sapiens, UniProt O96013); assay type: cell-based; conditions: PAK4 O96013-1
# protein kinases (human kinome) (Homo sapiens, UniProt O96013), sequence (O96013 whole entry): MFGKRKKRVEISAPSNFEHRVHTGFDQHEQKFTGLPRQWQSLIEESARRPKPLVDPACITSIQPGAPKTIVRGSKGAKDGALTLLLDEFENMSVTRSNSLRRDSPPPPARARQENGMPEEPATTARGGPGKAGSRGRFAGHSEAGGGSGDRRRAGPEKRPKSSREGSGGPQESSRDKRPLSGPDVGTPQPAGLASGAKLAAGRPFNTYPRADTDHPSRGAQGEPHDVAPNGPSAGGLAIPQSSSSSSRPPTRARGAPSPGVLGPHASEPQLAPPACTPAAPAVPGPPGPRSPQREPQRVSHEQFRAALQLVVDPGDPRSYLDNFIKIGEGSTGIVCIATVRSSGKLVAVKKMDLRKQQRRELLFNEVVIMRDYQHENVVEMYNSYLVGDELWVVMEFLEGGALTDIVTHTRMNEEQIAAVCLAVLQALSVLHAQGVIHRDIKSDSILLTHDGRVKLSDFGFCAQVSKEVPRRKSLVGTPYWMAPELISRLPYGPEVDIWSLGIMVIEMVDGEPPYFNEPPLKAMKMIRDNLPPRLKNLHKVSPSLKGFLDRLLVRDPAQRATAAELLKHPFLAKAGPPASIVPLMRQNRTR
# [3] = molecular target: T1, extended human kinome (kinase-like proteins) (Homo sapiens, UniProt Q53R41); assay: Whole cell quantitative proteomics: extended kinome hits
# T1 sequence (Q53R41 1-847): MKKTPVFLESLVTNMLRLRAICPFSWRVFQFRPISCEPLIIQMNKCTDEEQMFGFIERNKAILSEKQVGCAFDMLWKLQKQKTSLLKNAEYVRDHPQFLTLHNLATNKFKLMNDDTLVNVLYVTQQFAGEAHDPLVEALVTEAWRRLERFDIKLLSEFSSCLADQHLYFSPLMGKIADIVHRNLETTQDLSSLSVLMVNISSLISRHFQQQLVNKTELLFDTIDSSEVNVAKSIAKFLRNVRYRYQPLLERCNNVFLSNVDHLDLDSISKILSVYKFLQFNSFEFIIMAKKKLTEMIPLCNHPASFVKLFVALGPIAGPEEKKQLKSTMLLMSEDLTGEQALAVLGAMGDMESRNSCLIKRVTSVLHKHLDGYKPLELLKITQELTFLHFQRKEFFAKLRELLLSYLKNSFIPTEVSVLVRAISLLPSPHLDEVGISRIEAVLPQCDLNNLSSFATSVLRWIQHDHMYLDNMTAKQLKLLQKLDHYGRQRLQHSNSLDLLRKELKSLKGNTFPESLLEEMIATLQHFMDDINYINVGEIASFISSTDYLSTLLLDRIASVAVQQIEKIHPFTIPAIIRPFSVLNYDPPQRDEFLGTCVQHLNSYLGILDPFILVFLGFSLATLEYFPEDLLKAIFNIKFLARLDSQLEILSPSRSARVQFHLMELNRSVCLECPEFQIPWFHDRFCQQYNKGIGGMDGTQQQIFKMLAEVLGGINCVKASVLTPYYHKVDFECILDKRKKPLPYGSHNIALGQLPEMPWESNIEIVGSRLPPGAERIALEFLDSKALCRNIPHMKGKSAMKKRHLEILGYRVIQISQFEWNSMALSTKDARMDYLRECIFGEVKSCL
# [4] = molecular target: extended human kinome (kinase-like proteins) (Homo sapiens, UniProt P27144); assay: as above
# extended human kinome (kinase-like proteins) (Homo sapiens, UniProt P27144), sequence (P27144 whole entry): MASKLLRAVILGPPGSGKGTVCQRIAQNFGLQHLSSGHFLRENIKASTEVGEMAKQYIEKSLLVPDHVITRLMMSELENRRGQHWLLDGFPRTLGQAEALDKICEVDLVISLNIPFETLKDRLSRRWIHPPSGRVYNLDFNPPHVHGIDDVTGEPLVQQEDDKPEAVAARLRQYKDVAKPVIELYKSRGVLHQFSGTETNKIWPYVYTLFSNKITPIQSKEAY
# [5] = molecular target: protein kinases (human kinome) (Homo sapiens, UniProt Q16659); assay type: cell-based
# protein kinases (human kinome) (Homo sapiens, UniProt Q16659), sequence (Q16659 whole entry): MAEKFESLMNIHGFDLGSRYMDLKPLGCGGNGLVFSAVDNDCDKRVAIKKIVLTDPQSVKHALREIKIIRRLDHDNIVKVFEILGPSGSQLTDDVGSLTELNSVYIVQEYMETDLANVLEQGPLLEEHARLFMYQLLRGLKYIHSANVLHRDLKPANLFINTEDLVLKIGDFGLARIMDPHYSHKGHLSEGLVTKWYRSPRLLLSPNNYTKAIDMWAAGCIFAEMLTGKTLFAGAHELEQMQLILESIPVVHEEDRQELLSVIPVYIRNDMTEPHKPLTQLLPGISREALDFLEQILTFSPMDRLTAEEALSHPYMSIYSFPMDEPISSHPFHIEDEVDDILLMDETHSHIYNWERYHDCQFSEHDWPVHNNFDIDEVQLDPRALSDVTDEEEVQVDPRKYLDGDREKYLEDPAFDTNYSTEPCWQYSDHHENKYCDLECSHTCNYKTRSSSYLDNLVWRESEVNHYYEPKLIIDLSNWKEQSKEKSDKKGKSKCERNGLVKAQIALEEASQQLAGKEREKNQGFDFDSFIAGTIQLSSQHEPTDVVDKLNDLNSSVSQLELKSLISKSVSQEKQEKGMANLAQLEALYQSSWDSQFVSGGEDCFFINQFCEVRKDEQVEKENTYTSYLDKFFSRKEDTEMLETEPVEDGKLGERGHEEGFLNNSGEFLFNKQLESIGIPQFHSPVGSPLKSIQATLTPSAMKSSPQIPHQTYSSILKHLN
# [6] = molecular target: protein kinases (human kinome) (Homo sapiens, UniProt Q7KZI7); assay type: cell-based
# protein kinases (human kinome) (Homo sapiens, UniProt Q7KZI7), sequence (Q7KZI7 whole entry): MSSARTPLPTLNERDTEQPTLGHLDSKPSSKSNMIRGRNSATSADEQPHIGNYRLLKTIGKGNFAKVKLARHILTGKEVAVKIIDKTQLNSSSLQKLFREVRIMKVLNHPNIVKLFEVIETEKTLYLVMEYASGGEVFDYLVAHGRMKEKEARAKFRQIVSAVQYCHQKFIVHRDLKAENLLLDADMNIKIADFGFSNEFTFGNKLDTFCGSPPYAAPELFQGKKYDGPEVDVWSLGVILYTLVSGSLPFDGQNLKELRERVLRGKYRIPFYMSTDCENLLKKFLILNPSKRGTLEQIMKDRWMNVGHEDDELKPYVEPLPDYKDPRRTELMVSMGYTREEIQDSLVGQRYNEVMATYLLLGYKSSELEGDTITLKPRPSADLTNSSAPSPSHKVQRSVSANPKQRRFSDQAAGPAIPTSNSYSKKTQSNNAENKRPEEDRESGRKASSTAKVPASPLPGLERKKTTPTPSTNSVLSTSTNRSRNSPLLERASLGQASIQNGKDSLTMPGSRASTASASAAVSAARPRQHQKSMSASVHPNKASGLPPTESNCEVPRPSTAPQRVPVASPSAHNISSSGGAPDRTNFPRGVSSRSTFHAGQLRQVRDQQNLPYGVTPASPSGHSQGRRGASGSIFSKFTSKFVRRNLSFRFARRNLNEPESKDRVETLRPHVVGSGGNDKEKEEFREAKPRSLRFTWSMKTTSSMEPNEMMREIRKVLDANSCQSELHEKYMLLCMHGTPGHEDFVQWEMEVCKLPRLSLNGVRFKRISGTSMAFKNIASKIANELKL
# [7] = molecular target: protein kinases (human kinome) (Homo sapiens, UniProt Q9Y4K4); assay type: cell-based; conditions: MAP4K5 (Q9Y4K4), experiment wp168
# protein kinases (human kinome) (Homo sapiens, UniProt Q9Y4K4), sequence (Q9Y4K4 whole entry): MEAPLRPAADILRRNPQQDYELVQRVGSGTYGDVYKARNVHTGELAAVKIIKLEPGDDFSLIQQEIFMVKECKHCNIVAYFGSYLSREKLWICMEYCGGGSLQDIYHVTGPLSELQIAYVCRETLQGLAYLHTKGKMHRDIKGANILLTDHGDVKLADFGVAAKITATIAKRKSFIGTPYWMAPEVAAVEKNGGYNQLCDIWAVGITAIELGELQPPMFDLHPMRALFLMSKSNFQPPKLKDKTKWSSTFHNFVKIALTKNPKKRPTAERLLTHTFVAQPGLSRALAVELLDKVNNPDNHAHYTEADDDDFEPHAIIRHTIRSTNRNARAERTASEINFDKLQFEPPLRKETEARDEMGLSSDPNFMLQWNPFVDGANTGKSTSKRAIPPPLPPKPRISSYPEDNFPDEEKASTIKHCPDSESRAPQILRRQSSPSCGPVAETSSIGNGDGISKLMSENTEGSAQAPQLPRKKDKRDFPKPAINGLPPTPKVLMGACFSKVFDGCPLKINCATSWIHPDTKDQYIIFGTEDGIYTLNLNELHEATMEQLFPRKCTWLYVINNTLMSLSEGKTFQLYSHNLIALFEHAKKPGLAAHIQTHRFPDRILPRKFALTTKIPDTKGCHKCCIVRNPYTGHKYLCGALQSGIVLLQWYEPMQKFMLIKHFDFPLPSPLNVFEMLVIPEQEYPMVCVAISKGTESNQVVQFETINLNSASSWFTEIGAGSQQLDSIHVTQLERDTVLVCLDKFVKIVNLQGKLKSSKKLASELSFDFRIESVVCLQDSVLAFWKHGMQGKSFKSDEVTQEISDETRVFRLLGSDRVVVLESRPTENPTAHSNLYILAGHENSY
# [8] = molecular target: protein kinases (human kinome) (Homo sapiens, UniProt P12931); assay type: cell-based
# protein kinases (human kinome) (Homo sapiens, UniProt P12931), sequence (P12931 whole entry): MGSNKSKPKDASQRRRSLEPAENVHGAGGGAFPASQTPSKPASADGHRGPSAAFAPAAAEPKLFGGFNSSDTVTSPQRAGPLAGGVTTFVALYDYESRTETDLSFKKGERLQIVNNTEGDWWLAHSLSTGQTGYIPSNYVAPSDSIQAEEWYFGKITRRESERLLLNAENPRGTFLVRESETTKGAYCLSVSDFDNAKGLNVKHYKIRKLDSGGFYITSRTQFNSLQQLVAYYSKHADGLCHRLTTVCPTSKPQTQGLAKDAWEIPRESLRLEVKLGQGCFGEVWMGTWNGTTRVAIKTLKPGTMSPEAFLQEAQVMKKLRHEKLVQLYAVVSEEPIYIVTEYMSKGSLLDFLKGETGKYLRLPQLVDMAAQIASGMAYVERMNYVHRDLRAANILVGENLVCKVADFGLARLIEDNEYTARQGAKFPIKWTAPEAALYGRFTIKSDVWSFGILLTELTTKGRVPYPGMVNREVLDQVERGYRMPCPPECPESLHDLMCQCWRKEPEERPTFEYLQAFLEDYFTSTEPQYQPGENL
# [9] = molecular target: protein kinases (human kinome) (Homo sapiens, UniProt P06241); assay type: cell-based; conditions: experiment wp081
# protein kinases (human kinome) (Homo sapiens, UniProt P06241), sequence (P06241 whole entry): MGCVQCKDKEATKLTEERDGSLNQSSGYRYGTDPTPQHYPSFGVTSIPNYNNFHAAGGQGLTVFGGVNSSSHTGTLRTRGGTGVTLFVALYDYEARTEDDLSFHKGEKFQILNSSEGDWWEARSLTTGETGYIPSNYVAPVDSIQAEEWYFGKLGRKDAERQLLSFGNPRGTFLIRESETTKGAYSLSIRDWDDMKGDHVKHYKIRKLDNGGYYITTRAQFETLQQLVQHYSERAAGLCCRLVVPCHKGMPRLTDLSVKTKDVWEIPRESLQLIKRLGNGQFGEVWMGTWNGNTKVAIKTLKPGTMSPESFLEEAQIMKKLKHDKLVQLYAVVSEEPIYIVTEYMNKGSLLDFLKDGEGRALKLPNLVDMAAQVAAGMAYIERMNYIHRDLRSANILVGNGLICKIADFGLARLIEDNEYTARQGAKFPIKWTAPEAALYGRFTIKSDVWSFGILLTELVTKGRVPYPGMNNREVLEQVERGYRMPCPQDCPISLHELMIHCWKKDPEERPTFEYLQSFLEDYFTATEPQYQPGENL
# [10] = MAPK6 (Q16659), experiment wp131
# protein kinases (human kinome) (Homo sapiens, UniProt P54646), sequence (P54646 whole entry): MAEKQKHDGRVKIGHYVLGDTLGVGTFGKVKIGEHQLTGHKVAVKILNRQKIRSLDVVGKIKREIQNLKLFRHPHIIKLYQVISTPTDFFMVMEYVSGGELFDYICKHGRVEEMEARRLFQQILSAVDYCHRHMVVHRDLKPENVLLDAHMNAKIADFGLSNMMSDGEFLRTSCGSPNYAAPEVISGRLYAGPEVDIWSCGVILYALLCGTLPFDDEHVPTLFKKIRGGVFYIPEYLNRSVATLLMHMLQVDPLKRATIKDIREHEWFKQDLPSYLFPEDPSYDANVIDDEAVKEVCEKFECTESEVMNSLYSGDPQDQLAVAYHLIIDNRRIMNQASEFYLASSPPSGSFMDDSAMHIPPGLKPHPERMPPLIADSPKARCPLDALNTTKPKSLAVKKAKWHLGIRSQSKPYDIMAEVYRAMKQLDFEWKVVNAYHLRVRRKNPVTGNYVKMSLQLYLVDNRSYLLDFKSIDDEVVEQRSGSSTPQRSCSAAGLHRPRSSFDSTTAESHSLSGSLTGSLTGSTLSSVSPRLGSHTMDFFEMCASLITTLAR
structure (smiles),measurement,setting,value
NC(=O)c1c(F)cccc1Nc1nc(Nc2ccc(S(=O)(=O)NCCOCCOCCOCCOCCNc3cccc4c3C(=O)N(C3CCC(=O)NC3=O)C4=O)cc2)ncc1Br (stereo not shown) [TMX.02.138],logFC,[1]; PRKAA2 (P54646),−1.476
same,logFC of PRKAA2 (P54646),[1],−1.476
C=CCn1c(=O)c2cnc(Nc3ccc(N4CCN(CCCNc5cccc6c5C(=O)N(C5CCC(=O)NC5=O)C6=O)CC4)cc3)nc2n1-c1cccc(C(C)(C)O)n1 (stereo not shown) [ZNL.02.096],logFC,[2]; experiment wp056,−0.634
same,logFC PAK4,[2]; experiment wp056,−0.634
same,logFC,[2]; experiment wp081,−0.3989
same,logFC PAK4,[2]; experiment wp081,−0.3989
same,logFC,"[2]; experiment wp106, 2 hr",−0.4238
same,logFC PAK4,"[2]; experiment wp106, 2 hr",−0.4238
same,logFC,"[2]; experiment wp106, 4 hr",−0.5768
same,logFC PAK4,"[2]; experiment wp106, 4 hr",−0.5768
same,logFC,[2]; experiment wp118,−0.5732
same,logFC PAK4,[2]; experiment wp118,−0.5732
same,logFC FASTKD1 (Q53R41),[3]; experiment wp056,−0.4079
same,logFC FASTKD1 (Q53R41),[3]; experiment wp118,−0.4559
Nc1ncc(-c2ccc(S(=O)(=O)N(CCCNC(=O)CCOCCOCCOCCOCCOCCNc3cccc4c3C(=O)N(C3CCC(=O)NC3=O)C4=O)C3CC3)cc2)cc1-c1ccc2c(c1)CCNC2=O (stereo not shown) [WH.10417.099],logFC,[2]; experiment wp103,−0.3705
same,logFC PAK4,[2]; experiment wp103,−0.3705
same,logFC,[2]; experiment wp105,−0.3478
same,logFC PAK4,[2]; experiment wp105,−0.3478
same,logFC,[2]; experiment wp107,−0.4797
same,logFC PAK4,[2]; experiment wp107,−0.4797
CN(C)C(=O)c1cc2cnc(Nc3ccc(N4CCN(CCCCNC(=O)COc5cccc6c5C(=O)N(C5CCC(=O)NC5=O)C6=O)CC4)cn3)nc2n1C1CCCC1 (stereo not shown) [BSJ.04.132],logFC AK4 (P27144),[4]; experiment wp084,−0.6551
same,logFC FASTKD1 (Q53R41),[3]; experiment wp084,−0.6747
O=C(COc1cccc2c1C(=O)N(C1CCC(=O)NC1=O)C2=O)NCCCCCCCC(=O)NC1(c2ccc(-c3nc4ccn5c(=O)[nH]nc5c4cc3-c3ccccc3)cc2)CCC1 (stereo not shown) [INY.01.140.1],logFC AK4 (P27144),[4]; experiment wp081,−0.4309
same,logFC FASTKD1 (Q53R41),[3]; experiment wp081,−0.4808
CC(C)S(=O)(=O)c1ccccc1Nc1nc(Nc2ccc(N3CCN(CCOCCOCCNC(=O)CNc4cccc5c4C(=O)N(C4CCC(=O)NC4=O)C5=O)CC3)cc2)ncc1Cl (stereo not shown) [TL12.186],logFC,[5]; [10],−1.488
same,logFC,"[5]; MAPK6 (Q16659), experiment wp131, direction down",−1.488
same,logFC FASTKD1 (Q53R41),[3]; experiment wp137,−0.3731
Cc1ncsc1-c1ccc([C@H](C)NC(=O)[C@@H]2C[C@@H](O)CN2C(=O)[C@@H](NC(=O)CCCCCN2CCc3cc(Nc4ncc(C5CC5)c(NCCCNC(=O)C5CCC5)n4)ccc3C2)C(C)(C)C)cc1 [BSJ.05.026],logFC,"[6]; MARK2 (Q7KZI7-1), experiment wp195, direction down",−1.239
same,logFC,"[6]; MARK2 Q7KZI7-1, experiment wp195",−1.239
"Cc1ncsc1-c1ccc([C@H](C)NC(=O)[C@@H]2C[C@@H](O)CN2C(=O)[C@@H](NC(=O)CCCCCN2CCN(c3ccc(Nc4ncc5scc(-c6cccc(NS(C)(=O)=O)c6)c5n4)cc3)CC2)C(C)(C)C)cc1 [RSS0680, (2S,4R)-1-((S)-3,3-Dimethyl-2-(6-(4-(4-((7-(3-(methylsulfonamido)phenyl)thieno[3,2-d]pyrimidin-2-yl)amino)phenyl)piperazin-1-yl)hexanamido)butanoyl)-4-hydroxy-N—((S)-1-(4-(4-methylthiazol-5yl)phenyl)ethyl)pyrrolidine-2-carboxamide]",logFC,"[5]; MAPK6 Q16659, experiment wp080",−0.5033
same,logFC MAPK6,"[5]; MAPK6 Q16659, experiment wp080",−0.5033
same,logFC,"[6]; MARK2 (Q7KZI7-1), experiment wp117, direction down",−0.4286
same,logFC,"[6]; MARK2 Q7KZI7-1, experiment wp117",−0.4286
Cc1ncsc1-c1ccc([C@H](C)NC(=O)[C@@H]2C[C@@H](O)CN2C(=O)[C@@H](NC(=O)CCOCCOCCN2CCN(c3ccc(Nc4ncc(Cl)c(Nc5ccccc5S(=O)(=O)C(C)C)n4)cc3)CC2)C(C)(C)C)cc1 [FMF.06.098.1],logFC,[5]; [10],−0.4123
same,logFC MAPK6,[5]; [10],−0.4123
CC(=O)c1c(C)c2cnc(Nc3ccc(N4CCN(CCOCCOCCOCCNC(=O)COc5cccc6c5C(=O)N(C5CCC(=O)NC5=O)C6=O)CC4)cn3)nc2n(C2CCCC2)c1=O (stereo not shown) [BSJ.03.123],logFC AK4 (P27144),[4]; experiment wp084,−0.5103
same,logFC FASTKD1 (Q53R41),[3]; experiment wp084,−0.5242
C[C@@H]1C[C@@H](O)c2ncnc(N3CCN(C(=O)[C@H](CNCCCCCCCCCCc4cccc5c4C(=O)N(C4CCC(=O)NC4=O)C5=O)c4ccc(Cl)cc4)CC3)c21 (stereo partly shown) [INY.03.041.01],logFC,"[5]; MAPK6 (Q16659), experiment wp118",−0.6183
same,logFC MAPKG,"[5]; MAPKG Q16659, experiment wp118",−0.6183
O=C(COc1cccc2c1C(=O)N(C1CCC(=O)NC1=O)C2=O)NCCCCCCCN1CCc2cc(Nc3ncc(C4CC4)c(NCCCNC(=O)C4CCC4)n3)ccc2C1 (stereo not shown) [BSJ.04.178],logFC,"[6]; MARK2 (Q7KZI7-1), experiment wp134, direction down",−0.9686
same,logFC,"[6]; MARK2 Q7KZI7-1, experiment wp134",−0.9686
CC(C)(C)c1nc(-c2cccc(NS(=O)(=O)c3c(F)cccc3F)c2F)c(-c2ccnc(NCCOCCNC(=O)CCOCCOCCNc3cccc4c3C(=O)N(C3CCC(=O)NC3=O)C4=O)n2)s1 (stereo not shown) [DD.03.106],logFC AK4 (P27144),"[4]; experiment wp147, 4 uM",−0.5652
same,logFC FASTKD1 (Q53R41),"[3]; experiment wp147, 4 uM",−0.6262
Cc1ccc(NC(=O)c2cccc(C(F)(F)F)c2)cc1N1Cc2cnc(Nc3ccc(N4CCN(CCCCC(=O)N[C@H](C(=O)N5C[C@H](O)C[C@H]5C(=O)N[C@@H](C)c5ccc(-c6scnc6C)cc5)C(C)(C)C)CC4)nc3)nc2N(C)C1=O [DB1113],logFC,[7],−1.754
same,logFC,[7]; direction down,−1.754
Cc1ccc(NC(=O)c2cccc(C(F)(F)F)c2)cc1N1Cc2cnc(Nc3ccc(N4CCN(CCCOc5cccc6c5C(=O)N(C5CCC(=O)NC5=O)C6=O)CC4)nc3)nc2N(C)C1=O (stereo not shown) [DB0662],logFC,[2]; experiment wp168,−1.34
same,logFC PAK4,[2]; experiment wp168,−1.34
same,logFC of SRC,"[8]; Accession P12931, experiment wp168",−0.9018
same,logFC of SRC (P12931),[8]; Experiment wp168,−0.9018
Cn1c(=O)c(-c2c(Cl)cccc2Cl)cc2cnc(Nc3ccc(OCCNC(=O)CCCCCCNC(=O)COc4cccc5c4C(=O)N(C4CCC(=O)NC4=O)C5=O)cc3)nc21 (stereo not shown) [SB1.G.192.1],logFC FYN,[9]; Accession P06241-1,−0.9314
same,logFC,"[9]; FYN (P06241-1), direction down",−0.9314
same,logFC FASTKD1 (Q53R41),[3]; experiment wp081,−0.4222
CC(C)S(=O)(=O)c1ccccc1Nc1nc(Nc2ccc(N3CCN(CCOCCOCCC(=O)NCCNc4cccc5c4CN(C4CCC(=O)NC4=O)C5=O)CC3)cc2)ncc1Cl (stereo not shown) [TL13.97],logFC FASTKD1 (Q53R41),[3]; experiment wp137,−0.3684
CC(C)(C)c1nc(-c2cccc(NS(=O)(=O)c3c(F)cccc3F)c2F)c(-c2ccnc(NCCOCCNC(=O)CCOCCOCCNc3cccc4c3CN(C3CCC(=O)NC3=O)C4=O)n2)s1 (stereo not shown) [DD.03.107],logFC AK4 (P27144),[4]; experiment wp137,−0.3942
same,logFC AK4 (P27144),"[4]; experiment wp147, 1 uM",−0.3992
same,logFC AK4 (P27144),"[4]; experiment wp147, 2 uM",−0.4045
same,logFC AK4 (P27144),"[4]; experiment wp147, 4 uM",−0.898
same,logFC FASTKD1 (Q53R41),"[3]; experiment wp147, 1 uM",−0.58
same,logFC FASTKD1 (Q53R41),"[3]; experiment wp147, 2 uM",−0.5044
same,logFC FASTKD1 (Q53R41),"[3]; experiment wp147, 4 uM",−0.9447
Cc1cnc(Nc2ccc(N3CCN(CCOCCOCCNC(=O)COc4cccc5c4C(=O)N(C4CCC(=O)NC4=O)C5=O)CC3)cc2)nc1Nc1cccc(S(=O)(=O)NC(C)(C)C)c1 (stereo not shown) [JWG.118],logFC AK4 (P27144),[4]; experiment wp071,−0.5314
